Source: BigSolDB 2.1

Nc1ncnc2c1ncn2CCOCP(=O)(O)O
solubility (mole fraction)
Conditions	278.15 K	283.15 K	288.15 K	293.15 K	298.15 K	303.15 K	308.15 K	313.15 K	318.15 K	323.15 K
in DMF	0.000121	0.000203	0.000318	0.000491	0.000762	0.00115	0.00172	0.00254	0.00368	0.0053
in acetone	0.000103	0.000114	0.000145	0.00018	0.000231	0.000286	0.000359	0.000435	0.000531	0.00065
in ethanol	7.5e-05	9.4e-05	0.00012	0.000154	0.000191	0.000237	0.000291	0.000342	0.000438	0.000541
in isobutanol	0.000183	0.000211	0.000252	0.000296	0.000365	0.000433	0.000505	0.000597	0.00069	0.00081
in methanol	0.000352	0.000395	0.000455	0.000523	0.0006	0.000704	0.000805	0.000915	0.00105	0.00122
in n-heptane	0.000127	0.000139	0.000175	0.000217	0.000269	0.000325	0.000394	0.000473	0.00057	0.000679
in n-propanol	0.000217	0.000235	0.000279	0.000343	0.000409	0.000485	0.00058	0.000681	0.0008	0.00093
in toluene	5.7e-05	6.5e-05	8.7e-05	0.000115	0.000144	0.000185	0.000239	0.000295	0.000373	0.000464
